# Results reported in ChEMBL document CHEMBL1828625, “4-benzimidazolyl-3-phenylbutanoic acids as novel PIF-pocket-targeting allosteric inhibitors of protein kinase PKCζ” (J Med Chem, 2011).
# Active and inactive are the calls of the source. The calls are words filed in the database; no cut-off is given here.
# Legend:
# [1] = target: Ribosomal protein S6 kinase beta-1 (Homo sapiens) (UniProt P23443); assay: Inhibition of S6K1 at 50 uM
# [2] = target: 3-phosphoinositide-dependent protein kinase 1 (Homo sapiens) (UniProt O15530); assay: Activation of PDK1 at 50 uM
# Chain of 3-phosphoinositide-dependent protein kinase 1 (Homo sapiens) (O15530 whole entry, looked up): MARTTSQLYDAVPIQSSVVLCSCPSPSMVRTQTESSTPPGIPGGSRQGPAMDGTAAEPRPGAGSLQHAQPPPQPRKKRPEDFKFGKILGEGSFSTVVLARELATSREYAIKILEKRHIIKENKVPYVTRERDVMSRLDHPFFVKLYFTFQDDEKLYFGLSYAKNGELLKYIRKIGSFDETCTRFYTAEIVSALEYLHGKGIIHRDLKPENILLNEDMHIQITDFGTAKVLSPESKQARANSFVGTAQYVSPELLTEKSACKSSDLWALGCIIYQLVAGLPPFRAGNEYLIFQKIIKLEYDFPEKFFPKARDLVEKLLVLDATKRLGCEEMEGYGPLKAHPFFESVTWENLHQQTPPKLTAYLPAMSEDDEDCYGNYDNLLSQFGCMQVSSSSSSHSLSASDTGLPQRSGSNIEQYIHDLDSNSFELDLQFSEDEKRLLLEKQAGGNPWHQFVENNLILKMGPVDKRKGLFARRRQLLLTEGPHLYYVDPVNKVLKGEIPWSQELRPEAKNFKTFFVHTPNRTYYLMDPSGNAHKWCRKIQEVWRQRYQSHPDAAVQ
# [3] = target: T1, Protein kinase C zeta type (Homo sapiens, UniProt Q05513); assay: Inhibition of PKCzeta in human U937 cells assessed as inhibition of TNF-alpha-induced NF-kB activation by luciferase reporter gene assay; format: cell-based, U-937
# T1 sequence (Q05513 whole entry): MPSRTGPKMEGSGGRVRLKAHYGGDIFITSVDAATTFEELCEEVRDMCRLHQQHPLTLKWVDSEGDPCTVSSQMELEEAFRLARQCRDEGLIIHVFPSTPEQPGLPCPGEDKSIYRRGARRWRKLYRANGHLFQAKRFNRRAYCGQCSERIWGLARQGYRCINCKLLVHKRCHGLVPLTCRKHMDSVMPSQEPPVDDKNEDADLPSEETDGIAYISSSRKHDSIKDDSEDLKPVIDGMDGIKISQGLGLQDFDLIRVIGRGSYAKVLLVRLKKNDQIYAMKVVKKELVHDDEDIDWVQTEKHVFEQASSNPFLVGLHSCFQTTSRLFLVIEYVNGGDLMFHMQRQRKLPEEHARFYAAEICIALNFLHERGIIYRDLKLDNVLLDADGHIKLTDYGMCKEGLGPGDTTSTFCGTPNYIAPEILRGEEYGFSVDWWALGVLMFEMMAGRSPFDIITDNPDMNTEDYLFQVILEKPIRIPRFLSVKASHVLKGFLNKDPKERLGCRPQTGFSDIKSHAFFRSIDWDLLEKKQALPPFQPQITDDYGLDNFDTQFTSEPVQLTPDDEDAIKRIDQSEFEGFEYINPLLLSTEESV
# [4] = target: T1, Protein kinase C zeta type; assay: Inhibition of human PKCzeta assessed as [gamma32P]ATP utilization using myelin basic protein as substrate
# [5] = target: T2, Serine/threonine-protein kinase Sgk1 (Homo sapiens) (UniProt O00141); assay: Inhibition of SGK at 50 uM
# T2 sequence (whole entry): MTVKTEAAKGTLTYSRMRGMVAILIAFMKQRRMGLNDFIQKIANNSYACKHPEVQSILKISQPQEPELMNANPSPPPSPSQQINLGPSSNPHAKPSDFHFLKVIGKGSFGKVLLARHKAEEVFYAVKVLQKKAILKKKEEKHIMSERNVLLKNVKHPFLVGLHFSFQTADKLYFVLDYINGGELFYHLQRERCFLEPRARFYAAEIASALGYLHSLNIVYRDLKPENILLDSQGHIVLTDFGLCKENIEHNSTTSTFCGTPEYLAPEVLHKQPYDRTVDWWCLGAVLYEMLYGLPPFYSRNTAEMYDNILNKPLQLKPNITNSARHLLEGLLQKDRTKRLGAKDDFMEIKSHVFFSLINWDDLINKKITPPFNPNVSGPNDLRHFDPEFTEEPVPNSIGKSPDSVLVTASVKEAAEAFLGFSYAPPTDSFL
# [6] = target: Serine/threonine-protein kinase N2 (Homo sapiens) (UniProt Q16513); assay: Inhibition of PRK2 at 50 uM
# Chain of Serine/threonine-protein kinase N2 (Homo sapiens) (Q16513 whole entry, looked up): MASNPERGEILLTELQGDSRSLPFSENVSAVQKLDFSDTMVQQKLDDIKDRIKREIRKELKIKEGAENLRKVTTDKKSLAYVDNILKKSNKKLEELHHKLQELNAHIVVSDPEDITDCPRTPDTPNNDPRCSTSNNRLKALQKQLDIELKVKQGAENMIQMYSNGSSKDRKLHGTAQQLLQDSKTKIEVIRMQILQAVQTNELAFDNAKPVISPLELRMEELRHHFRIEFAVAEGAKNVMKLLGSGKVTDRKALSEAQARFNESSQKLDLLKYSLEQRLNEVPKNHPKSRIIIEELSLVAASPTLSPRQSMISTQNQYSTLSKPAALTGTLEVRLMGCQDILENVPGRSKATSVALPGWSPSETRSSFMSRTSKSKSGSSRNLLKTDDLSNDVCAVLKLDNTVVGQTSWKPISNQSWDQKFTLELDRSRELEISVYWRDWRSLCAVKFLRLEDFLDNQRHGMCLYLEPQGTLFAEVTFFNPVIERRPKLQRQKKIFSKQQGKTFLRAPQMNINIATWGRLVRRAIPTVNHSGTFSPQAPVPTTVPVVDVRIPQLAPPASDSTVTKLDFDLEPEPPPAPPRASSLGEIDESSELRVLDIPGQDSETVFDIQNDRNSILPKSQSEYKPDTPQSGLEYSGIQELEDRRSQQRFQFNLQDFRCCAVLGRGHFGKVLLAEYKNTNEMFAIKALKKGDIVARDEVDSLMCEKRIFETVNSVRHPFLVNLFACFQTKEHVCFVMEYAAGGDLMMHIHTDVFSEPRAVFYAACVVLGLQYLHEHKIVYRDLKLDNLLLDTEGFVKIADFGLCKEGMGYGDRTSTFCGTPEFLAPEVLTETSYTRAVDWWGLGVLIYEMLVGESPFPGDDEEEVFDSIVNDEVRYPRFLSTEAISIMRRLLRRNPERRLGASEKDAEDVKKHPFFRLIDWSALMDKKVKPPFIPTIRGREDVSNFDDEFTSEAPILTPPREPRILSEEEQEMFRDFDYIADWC
# [7] = target: T3, Protein kinase C iota type (Homo sapiens) (UniProt P41743); assay: Inhibition of PKCiota at 50 uM
# T3 sequence (whole entry): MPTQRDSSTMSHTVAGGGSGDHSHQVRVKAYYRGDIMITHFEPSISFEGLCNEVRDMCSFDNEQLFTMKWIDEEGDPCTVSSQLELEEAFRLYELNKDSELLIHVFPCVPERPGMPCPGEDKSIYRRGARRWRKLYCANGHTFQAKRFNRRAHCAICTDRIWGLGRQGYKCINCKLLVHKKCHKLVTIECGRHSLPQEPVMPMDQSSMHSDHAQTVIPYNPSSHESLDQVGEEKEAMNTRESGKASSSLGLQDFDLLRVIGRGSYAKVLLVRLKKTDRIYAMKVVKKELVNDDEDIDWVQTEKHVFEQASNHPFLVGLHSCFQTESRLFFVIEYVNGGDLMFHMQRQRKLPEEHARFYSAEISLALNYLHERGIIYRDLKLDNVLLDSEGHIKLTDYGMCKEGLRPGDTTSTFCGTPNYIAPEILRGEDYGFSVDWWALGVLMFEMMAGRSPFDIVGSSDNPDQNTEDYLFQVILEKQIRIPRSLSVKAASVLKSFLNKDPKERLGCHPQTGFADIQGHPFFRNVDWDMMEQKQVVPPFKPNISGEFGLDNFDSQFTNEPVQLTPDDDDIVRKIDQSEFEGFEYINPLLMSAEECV
# [8] = target: RAC-alpha serine/threonine-protein kinase (Homo sapiens) (UniProt P31749); assay: Inhibition of PKB-alpha at 50 uM
# Chain of RAC-alpha serine/threonine-protein kinase (Homo sapiens) (P31749 whole entry): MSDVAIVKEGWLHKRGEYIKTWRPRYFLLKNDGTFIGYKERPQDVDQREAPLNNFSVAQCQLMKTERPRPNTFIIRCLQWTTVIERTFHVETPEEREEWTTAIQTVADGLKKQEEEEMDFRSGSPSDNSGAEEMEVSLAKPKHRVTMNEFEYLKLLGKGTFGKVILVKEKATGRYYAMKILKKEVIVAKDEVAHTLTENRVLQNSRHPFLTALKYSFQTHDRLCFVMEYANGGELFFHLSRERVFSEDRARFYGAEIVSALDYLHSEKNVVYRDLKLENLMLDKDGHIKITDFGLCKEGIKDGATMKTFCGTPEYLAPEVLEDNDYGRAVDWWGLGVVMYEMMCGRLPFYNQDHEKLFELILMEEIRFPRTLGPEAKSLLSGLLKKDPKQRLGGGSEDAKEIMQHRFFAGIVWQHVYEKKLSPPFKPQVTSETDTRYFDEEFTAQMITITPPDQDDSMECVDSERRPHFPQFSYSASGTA
# [9] = target: T3, Protein kinase C iota type (Homo sapiens); assay: Inhibition of PKCiota at 200 uM
# [10] = Inhibition of PKA at 50 uM
# Chain of Ribosomal protein S6 kinase beta-1 (Homo sapiens) (P23443 whole entry, looked up): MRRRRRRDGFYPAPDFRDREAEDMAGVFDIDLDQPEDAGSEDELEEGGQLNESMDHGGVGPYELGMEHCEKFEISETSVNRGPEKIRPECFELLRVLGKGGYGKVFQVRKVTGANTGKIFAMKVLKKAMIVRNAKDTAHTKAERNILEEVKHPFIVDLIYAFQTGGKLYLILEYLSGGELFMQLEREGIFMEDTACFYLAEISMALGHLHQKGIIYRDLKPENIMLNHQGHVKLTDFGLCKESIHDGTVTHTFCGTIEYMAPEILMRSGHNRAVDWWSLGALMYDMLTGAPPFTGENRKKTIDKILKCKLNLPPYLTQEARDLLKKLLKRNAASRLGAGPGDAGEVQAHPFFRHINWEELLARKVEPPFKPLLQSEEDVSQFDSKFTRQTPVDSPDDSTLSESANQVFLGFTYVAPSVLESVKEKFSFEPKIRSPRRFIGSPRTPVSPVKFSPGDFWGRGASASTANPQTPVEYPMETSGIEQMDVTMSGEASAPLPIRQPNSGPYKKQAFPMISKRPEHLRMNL
structure (smiles),measurement,setting,value
O=C(O)CC(Cc1nc2cc(-c3ccccc3)ccc2[nH]1)c1ccc(Cl)cc1 (racemic),inhibition,[1],60%
O=C(O)CC(Cc1nc2cc(Cl)c(F)cc2[nH]1)c1ccc(Cl)cc1 (racemic),fold change (FC),[2],3
CC(C)(C)c1ccc(C(CC(=O)O)Cc2nc3ccc(I)cc3[nH]2)cc1 (racemic),IC50,[3],13 µM
same,IC50,[4],23 µM
CC(C)(C)c1ccc(C(CC(=O)O)Cc2nc3cc(I)ccc3[nH]2)cc1 (racemic),inhibition,[5],30%
O=C(O)CC(Cc1nc2cc(Cl)ccc2[nH]1)c1ccc(Cl)cc1Cl (racemic),fold change (FC),[2],3
CCCc1ccc(C(CC(=O)O)Cc2nc3cc(I)ccc3[nH]2)cc1 (racemic),inhibition,[5],Active
same,inhibition,[6],Active
same,inhibition,[7],inactive
same,inhibition,[8],Active
same,inhibition,[9],inactive
same,inhibition,[1],60%
same,inhibition,[10],Active
